Test results reported in patent US9783505B2, “Substituted diaminopyrimidyl compounds, compositions thereof, and methods of treatment therewith” (Signal Pharmaceuticals, LLC, priority 2013, dated 2017).
pIC50: −log10 of the molar value.

What follows are compounds tested against T1, His-PKC-theta (Homo sapiens, UniProt Q04759) (assay: PKC-theta Assay (384-well time resolved fluorescence, IMAP TR-FRET)). Conditions: Table 2; read-out: Act. Level (IC50 in the PKC-theta Assay).
T1 construct: His; purchased Invitrogen
Format: biochemical
Experimental: PKC-theta Assay. A 384-well time resolved fluorescence assay was used to monitor PKC-theta activity. The PKC-theta assay was run in the following assay buffer: 50 mM HEPES pH 7.6, 10 mM MgCl2, 1 mM DTT, 0.01% Triton X-100, 0.01% BSA and 0.1 mM EDTA. To initiate the reaction, 200 nM of Fam-labeled S6-derived peptide (Molecular Devices) and 10 μM of ATP were mixed with 142 pM of His-PKC-theta (Invitrogen) for a total assay volume of 25 μL in each well. The assay was incubated at room temperature for 2 hours and terminated using a 60 μL/well mixture of Detection Binding Solution: 70% IMAP Progressive Binding Buffer A, 30% IMAP Progressive Binding Buffer B, 1:600 Progressive Binding Reagent, and 1:400 TR-FRET Tb Donor (Molecular Devices). The assay plates were then incubated overnight at room temperature and read on a Perkin-Elmer Envision Reader.

T1 sequence (Q04759 whole entry): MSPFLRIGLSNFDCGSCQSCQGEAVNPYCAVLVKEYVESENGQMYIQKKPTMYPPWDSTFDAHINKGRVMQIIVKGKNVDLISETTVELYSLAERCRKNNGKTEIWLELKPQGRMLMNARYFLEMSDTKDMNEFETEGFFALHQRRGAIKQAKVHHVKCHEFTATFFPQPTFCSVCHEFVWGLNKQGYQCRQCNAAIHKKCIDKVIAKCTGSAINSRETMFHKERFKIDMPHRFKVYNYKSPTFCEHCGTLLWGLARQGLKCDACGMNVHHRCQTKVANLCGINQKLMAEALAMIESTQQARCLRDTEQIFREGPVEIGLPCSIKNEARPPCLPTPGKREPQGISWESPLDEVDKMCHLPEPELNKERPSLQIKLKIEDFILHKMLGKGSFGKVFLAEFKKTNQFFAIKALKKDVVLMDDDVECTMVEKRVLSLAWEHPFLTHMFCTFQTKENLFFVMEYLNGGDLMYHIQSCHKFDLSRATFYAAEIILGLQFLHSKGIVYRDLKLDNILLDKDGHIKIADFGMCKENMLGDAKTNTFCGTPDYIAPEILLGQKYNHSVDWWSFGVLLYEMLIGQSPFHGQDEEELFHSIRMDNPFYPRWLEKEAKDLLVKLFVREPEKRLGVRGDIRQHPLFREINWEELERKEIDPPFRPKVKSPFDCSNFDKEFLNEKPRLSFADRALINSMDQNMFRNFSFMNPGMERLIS

SMILES | pIC50
CC1(C)[C@@H](O)C[C@H]1Nc1nc(NCCc2ccc(C#N)c(C(F)(F)F)c2)ncc1C#N [Cmpd 141] | 6.10 to 7.00
COc1cccc(F)c1CNc1ncc(C#N)c(N[C@H]2CC[C@@H](O)CC2)n1 [Cmpd 22] | 5.00 to 5.70
CC1(C)[C@@H](CO)C[C@@H]1Nc1nc(NCCc2cccc(Cl)c2)ncc1C#N [Cmpd 77] | 5.00 to 5.70
N#Cc1cnc(NCc2c(F)cccc2Cl)nc1N[C@H]1CC[C@@H](O)CC1 [Cmpd 16] | 6.10 to 7.00
COCCOc1ccc(CCNc2ncc(C#N)c(N[C@@H]3C[C@H](O)C3(C)C)n2)cc1 [Cmpd 109] | 6.10 to 7.00
CC(C)(O)CNc1nc(NCc2cnccc2C(F)(F)F)ncc1C#N [Cmpd 6] | 6.10 to 7.00
CC1(C)[C@@H](O)C[C@H]1Nc1nc(NCCc2ccc(C#N)c(OC(F)(F)F)c2)ncc1C#N [Cmpd 143] | 5.70 to 6.10

The next lines start with the values.

pIC50 | SMILES
5.00 to 5.70 | Cc1nnnn1-c1ccccc1CCNc1ncc(C#N)c(N[C@@H]2CC[C@H](O)C(C)(C)C2)n1 [Cmpd 168]
6.10 to 7.00 | CC1(C)C[C@H](Nc2nc(NCCc3ccccc3C#N)ncc2C#N)CC[C@@H]1O [Cmpd 156]
> 7.00 | COc1cccc(CCNc2ncc(C#N)c(N[C@@H]3CC[C@H](O)C(C)(C)C3)n2)c1 [Cmpd 31]
6.10 to 7.00 | N#Cc1cnc(NCc2ccccc2Cl)nc1N[C@H]1CC[C@@H](O)CC1 [Cmpd 9]
5.70 to 6.10 | CC1(C)[C@@H](O)C[C@H]1Nc1nc(NCCc2ccc(OC3CCCC3)cc2)ncc1C#N [Cmpd 118]
6.10 to 7.00 | CC1(C)C[C@H](Nc2nc(NCCc3ccc(Cl)cc3Cl)ncc2C#N)CC[C@@H]1O [Cmpd 100]
6.10 to 7.00 | N#Cc1cnc(NCc2ccccc2C(F)(F)F)nc1N[C@H]1CC[C@@H](O)CC1 [Cmpd 8]
6.10 to 7.00 | CC(=O)Nc1ccc(CCNc2ncc(C#N)c(N[C@@H]3CC[C@H](O)C(C)(C)C3)n2)cc1 [Cmpd 130]
> 7.00 | CC1(C)C[C@H](Nc2nc(NCCc3ccc(OCC(F)F)cc3)ncc2C#N)CC[C@@H]1O [Cmpd 170]
6.10 to 7.00 | CC1(C)C[C@H](Nc2nc(NCCc3ccccc3O)ncc2C#N)CC[C@@H]1O [Cmpd 67]
6.10 to 7.00 | CC1(C)[C@@H](O)C[C@H]1Nc1nc(NCCc2ccc(Cl)c(Cl)c2)ncc1C#N [Cmpd 107]
6.10 to 7.00 | CC1(C)C[C@H](Nc2nc(NCCc3ccc(Cl)c(Cl)c3)ncc2C#N)CC[C@@H]1O [Cmpd 101]
> 7.00 | Cc1nnnn1-c1ccccc1CNc1ncc(C(F)(F)F)c(NC2CCC(O)C(C)(C)C2)n1 (stereo not drawn) [Cmpd 2]
6.10 to 7.00 | Cc1nnnn1-c1ccc(CCNc2ncc(C#N)c(N[C@@H]3CC[C@H](O)C(C)(C)C3)n2)cc1 [Cmpd 167]
> 7.00 | CC1(C)C[C@H](Nc2nc(NCCc3cc(F)cc(Cl)c3)ncc2C#N)CC[C@@H]1O [Cmpd 184]
5.70 to 6.10 | CC1(C)[C@@H](O)C[C@H]1Nc1nc(NCCc2ccc(N3CCCCC3)cc2)ncc1C#N [Cmpd 114]
6.10 to 7.00 | CN(C)c1ccc(CCNc2ncc(C#N)c(N[C@@H]3C[C@H](O)C3(C)C)n2)cc1 [Cmpd 133]
6.10 to 7.00 | CC1(C)C[C@H](Nc2nc(NCCc3cccc(S(N)(=O)=O)c3)ncc2C#N)CC[C@@H]1O [Cmpd 172]
6.10 to 7.00 | CC1(C)C[C@H](Nc2nc(NCCc3ccc(S(=O)(=O)C(F)(F)F)cc3)ncc2C#N)CC[C@@H]1O [Cmpd 185]
5.00 to 5.70 | Cc1nnnn1-c1ccccc1CNc1ncc(C(F)(F)F)c(N[C@H]2CC[C@@H](O)C(C)(C)C2)n1 [Cmpd 24]
6.10 to 7.00 | CC1(C)C[C@H](Nc2nc(NCCc3ccc(Oc4ccccc4)cc3)ncc2C#N)CC[C@@H]1O [Cmpd 79]
5.70 to 6.10 | CC1(C)[C@@H](O)C[C@H]1Nc1nc(NCCc2ccccc2O)ncc1C#N [Cmpd 108]
6.10 to 7.00 | COc1ccc(CCNc2ncc(C#N)c(N[C@@H]3CC[C@H](O)C(C)(C)C3)n2)cc1 [Cmpd 94]
6.10 to 7.00 | CC1(C)C[C@H](Nc2nc(NCCc3ccc(C#N)c(F)c3)ncc2C#N)CC[C@@H]1O [Cmpd 148]

Same assay, conditions: read-out: Act. Level (IC50 in the PKC-theta Assay)

SMILES | pIC50
O[C@H]1C[C@H](Nc2nc(NCc3cnccc3C(F)(F)F)ncc2C(F)(F)F)C1 [Cmpd 94] | 6.10 to 7.00
N#Cc1cnc(NCc2cnccc2C(F)(F)F)nc1NC1CC(O)C1 (stereo not drawn) [Cmpd 90] | > 7.00
O[C@H]1CC[C@@H](Nc2nc(NCc3cnccc3C(F)(F)F)ncc2C(F)(F)F)CC1 [Cmpd 69] | > 7.00
COC1CC(Nc2nc(NCc3cnccc3C(F)(F)F)ncc2C(F)(F)F)C1(C)C (stereo not drawn) [Cmpd 3] | > 7.00
CC1(C)C[C@H](Nc2nc(NCc3cnccc3C(F)(F)F)ncc2C(F)(F)F)CC[C@@H]1O [Cmpd 18] | > 7.00
CC(C)(F)c1ncncc1CNc1ncc(C#N)c(N[C@H]2C[C@@H](CO)C2(C)C)n1 [Cmpd 109] | 6.10 to 7.00
CC(C)(F)c1ncncc1CNc1ncc(C#N)c(N[C@@H]2C[C@H](CO)C2(C)C)n1 [Cmpd 15] | > 7.00
C[C@]1(O)CC[C@@H](Nc2nc(NCc3cncnc3-c3ccc(F)cc3)ncc2C#N)CC1 [Cmpd 86] | > 7.00
Cc1ccc(Oc2ncncc2CNc2ncc(C#N)c(N[C@H]3CC[C@@](C)(O)CC3)n2)cc1 [Cmpd 28] | > 7.00
Cc1[nH]c2c(F)cc(F)cc2c1CCNc1ncc(C#N)c(N[C@H]2CC[C@@H](O)CC2)n1 [Cmpd 149] | 5.00 to 5.70
CC(C)c1ncncc1CNc1ncc(C(F)(F)F)c(N[C@@H]2C[C@H](O)C2(C)C)n1 [Cmpd 20] | > 7.00
CC1(C)C(O)C(C)(C)C1Nc1nc(NCc2cnccc2C(F)(F)F)ncc1C#N (stereo not drawn) [Cmpd 130] | 6.10 to 7.00
CCc1ncncc1CNc1ncc(C#N)c(N[C@@H]2C[C@@H](O)C2(C)C)n1 [Cmpd 128] | 6.10 to 7.00
N#Cc1cnc(NCc2cncnc2C(F)(F)F)nc1N[C@H]1CC[C@@H](O)CC1 [Cmpd 96] | 6.10 to 7.00
Cc1ccc(Oc2ncncc2CNc2ncc(C(F)(F)F)c(N[C@H]3CC[C@@H](O)CC3)n2)cc1 [Cmpd 19] | > 7.00
CC1(C)[C@H](CO)C[C@H]1Nc1nc(NCc2cnccc2C(F)(F)F)ncc1C#N [Cmpd 51] | > 7.00
CC1(C)[C@@H](O)C[C@H]1Nc1nc(NCc2cncnc2-c2ccc(F)cc2)ncc1C(F)(F)F [Cmpd 70] | > 7.00
CC1(C)[C@@H](O)C[C@H]1Nc1nc(NCc2cncnc2OCCC(F)(F)F)ncc1C#N [Cmpd 4] | > 7.00
Cc1cc(C(F)(F)F)c(CNc2ncc(C#N)c(N[C@H]3CC[C@@](C)(O)CC3)n2)c[n+]1[O-] [Cmpd 146] | 5.70 to 6.10
N#Cc1cnc(NCc2ccccc2Oc2ccccc2)nc1N[C@H]1CC[C@@H](O)CC1 [Cmpd 118] | 6.10 to 7.00
C[C@]1(O)CC[C@@H](Nc2nc(NCc3cnccc3C(F)(F)F)ncc2C#N)CC1 [Cmpd 71] | > 7.00
CC1(C)C[C@H](Nc2nc(NCc3cncnc3OCCC(F)(F)F)ncc2C(F)(F)F)CC[C@@H]1O [Cmpd 8] | > 7.00
Cc1cccc(Oc2ncncc2CNc2ncc(C#N)c(N[C@H]3CC[C@@H](O)CC3)n2)c1 [Cmpd 45] | > 7.00
CCOc1ncncc1CNc1ncc(C#N)c(N[C@@H]2C[C@H](O)C2(C)C)n1 [Cmpd 58] | > 7.00
CC1(C)[C@H](CO)C[C@@H]1Nc1nc(NCc2cnccc2C(F)(F)F)ncc1C(F)(F)F [Cmpd 91] | 6.10 to 7.00
CC(C)c1ncncc1CNc1ncc(C#N)c(N[C@H]2CC[C@@](C)(O)CC2)n1 [Cmpd 56] | > 7.00
CC1(C)[C@@H](Nc2nc(NCc3c[n+]([O-])ccc3C(F)(F)F)ncc2C(F)(F)F)C[C@@H]1O [Cmpd 139] | 6.10 to 7.00
CC1(C)[C@H](O)C[C@@H]1Nc1nc(NCc2cncnc2-c2ccc(F)cc2)ncc1C(F)(F)F [Cmpd 97] | 6.10 to 7.00
CC1(C)[C@H](CO)C[C@@H]1Nc1nc(NCc2c[n+]([O-])ccc2C(F)(F)F)ncc1C(F)(F)F [Cmpd 141] | 5.70 to 6.10
COC1CC(Nc2nc(NCc3cnccc3C(F)(F)F)ncc2C(F)(F)F)C1(C)C (stereo not drawn) [Cmpd 103] | 6.10 to 7.00

Now from value to compound:

pIC50 | SMILES
5.00 to 5.70 | Cc1[nH]c2ccc(C#N)cc2c1CCNc1ncc(C#N)c(N[C@H]2CC[C@@H](O)CC2)n1 [Cmpd 148]
5.70 to 6.10 | Cc1ccc(CCNc2ncc(C#N)c(N[C@@H]3CC[C@H](O)C(C)(C)C3)n2)cn1 [Cmpd 197]
5.00 to 5.70 | CC1(C)[C@@H](O)C[C@H]1Nc1nc(NCCc2cccc3cccnc23)ncc1C#N [Cmpd 190]
5.00 to 5.70 | Cc1nc(CCNc2ncc(C#N)c(N[C@@H]3CC[C@H](O)C(C)(C)C3)n2)no1 [Cmpd 195]
6.10 to 7.00 | Cc1ccc(CCNc2ncc(C#N)c(N[C@@H]3CC[C@H](O)C(C)(C)C3)n2)o1 [Cmpd 192]
> 7.00 | CC1(C)C[C@H](Nc2nc(NCc3cncnc3C(F)(F)F)ncc2C#N)CC[C@@H]1O [Cmpd 43]
6.10 to 7.00 | CC1(C)C[C@H](Nc2nc(NCCC3C(=O)Nc4ccccc43)ncc2C#N)CC[C@H]1O (stereo partly drawn) [Cmpd 158]
> 7.00 | N#Cc1cnc(NCc2cncnc2-c2ccccc2)nc1N[C@H]1CC[C@@H](O)CC1 [Cmpd 52]
6.10 to 7.00 | CC1(C)C[C@H](Nc2nc(NCc3cncnc3C(F)(F)F)ncc2C#N)CC[C@H]1O [Cmpd 159]
> 7.00 | N#Cc1cnc(NCCc2c[nH]c3ccc(F)cc23)nc1N[C@H]1CC[C@@H](C(N)=O)CC1 [Cmpd 178]
6.10 to 7.00 | CC1(C)C[C@H](Nc2nc(NCCc3c[nH]c4cc(OC(F)(F)F)ccc34)ncc2C#N)CC[C@@H]1O [Cmpd 170]
5.70 to 6.10 | COc1ccc2c(CCNc3ncc(C#N)c(N[C@H]4CC[C@@H](O)CC4)n3)c[nH]c2c1 [Cmpd 164]
6.10 to 7.00 | COc1cccc2c(CCNc3ncc(C#N)c(N[C@@H]4CC[C@H](O)C(C)(C)C4)n3)c[nH]c12 [Cmpd 177]
> 7.00 | CC1(C)C[C@H](Nc2nc(NCCC3C(=O)Nc4ccccc43)ncc2C#N)CC[C@@H]1O (stereo partly drawn) [Cmpd 247]
